The target of this assay is T1, Human Polθ polymerase domain (aa1820-2590) (Homo sapiens, UniProt O75417).
T1 construct: Human Polθ polymerase domain (aa1820-2590) was expressed in E. Coli; made in house; host or cells: E. coli
T1 sequence (O75417 1820-2590): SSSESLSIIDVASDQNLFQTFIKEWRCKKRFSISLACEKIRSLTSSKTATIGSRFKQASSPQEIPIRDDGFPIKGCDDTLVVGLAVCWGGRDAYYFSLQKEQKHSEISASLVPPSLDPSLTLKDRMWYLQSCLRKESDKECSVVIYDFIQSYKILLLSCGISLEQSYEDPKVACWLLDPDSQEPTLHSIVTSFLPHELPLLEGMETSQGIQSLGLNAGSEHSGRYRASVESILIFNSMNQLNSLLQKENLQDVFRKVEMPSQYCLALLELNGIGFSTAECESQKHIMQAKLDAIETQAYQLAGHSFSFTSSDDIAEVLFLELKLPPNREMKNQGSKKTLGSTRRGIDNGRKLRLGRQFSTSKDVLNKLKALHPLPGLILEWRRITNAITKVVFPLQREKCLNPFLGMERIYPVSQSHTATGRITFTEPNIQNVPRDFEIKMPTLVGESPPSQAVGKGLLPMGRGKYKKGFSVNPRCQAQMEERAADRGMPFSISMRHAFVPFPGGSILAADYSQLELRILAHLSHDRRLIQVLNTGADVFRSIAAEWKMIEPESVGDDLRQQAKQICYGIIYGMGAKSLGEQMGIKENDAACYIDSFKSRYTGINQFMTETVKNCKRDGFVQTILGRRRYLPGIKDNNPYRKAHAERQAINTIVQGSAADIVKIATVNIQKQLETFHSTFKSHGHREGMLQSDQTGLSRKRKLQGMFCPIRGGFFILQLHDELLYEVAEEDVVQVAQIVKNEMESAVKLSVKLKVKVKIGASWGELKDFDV
In words: Polθ Polymerase Domain Kinact/Kl Assay (PicoGreen). In kind it is biochemical. To be noted: covalent inhibitors, kobs vs [I] fit, 0.8 nM Polθ, 100 nM DNA substrate. The method in brief: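 E. coli-expressed enzyme (0.8 nM final) was run with 100 nM annealed DNA substrate and dNTPs in Tris pH 7.5 buffer (1% DMSO), with EDTA stops across a time course up to 60 min. Synthesised DNA was read by PicoGreen fluorescence. kobs per inhibitor concentration was fitted from the time courses, and Kinact and KI came from the kobs-vs-[I] plot.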

SMILES strings stand for the structures. Like-named read-outs stand apart in the source and are kept apart here.

For `Cc1cc(C(F)(F)F)c(C#N)c(N[C@H]2CCN(CCCOC3CN(C(=O)/C=C/[C@@H]4CCCN4C)C3)c3c(F)cccc3N(C)C2=O)n1` [Example 54, 2-(((S)-7-Fluoro-1-methyl-6-(3-((1-((E)-3-((S)-1-methylpyrrolidin-2-yl)acryloyl)azetidin-3-yl)oxy)propyl)-2-oxo-1,2,3,4,5,6-hexahydrobenzo[b][1,4]diazocin-3-yl)amino)-6-methyl-4-(trifluoromethyl)nicotinonitrile], where the note is “read-out: Kinact/KI”, the kinact/KI came out at 700000 M⁻¹ s⁻¹. Same read-out and setting: the result for `Cc1cc(C(F)(F)F)c(C#N)c(N[C@H]2CCN(CCCOC3CN(C(=O)/C=C/[C@H]4CCCN4C)C3)c3c(F)cccc3N(C)C2=O)n1` [Example 55, 2-(((S)-7-Fluoro-1-methyl-6-(3-((1-((E)-3-((R)-1-methylpyrrolidin-2-yl)acryloyl)azetidin-3-yl)oxy)propyl)-2-oxo-1,2,3,4,5,6-hexahydrobenzo[b][1,4]diazocin-3-yl)amino)-6-methyl-4-(trifluoromethyl)nicotinonitrile] reads 810000 M⁻¹ s⁻¹; that for `COCCN(C)C/C=C/C(=O)N1CC(OCCCN2CC[C@H](Nc3nc(C)cc(C(F)(F)F)c3C#N)C(=O)N(C)c3cccc(F)c32)C1` [Example 56, (S,E)-2-((7-Fluoro-6-(3-((1-(4-((2-methoxyethyl)(methyl)amino)but-2-enoyl)azetidin-3-yl)oxy)propyl)-1-methyl-2-oxo-1,2,3,4,5,6-hexahydrobenzo[b][1,4]diazocin-3-yl)amino)-6-methyl-4-(trifluoromethyl)nicotinonitrile], 1.1e+07 M⁻¹ s⁻¹.

Regarding `C#CCN(C)C/C=C/C(=O)N1CC(OCCCN2CC[C@H](Nc3nc(C)cc(C(F)(F)F)c3C#N)C(=O)N(C)c3cccc(F)c32)C1` [Example 57, (S,E)-2-((7-Fluoro-1-methyl-6-(3-((1-(4-(methyl(prop-2-yn-1-yl)amino)but-2-enoyl)azetidin-3-yl)oxy)propyl)-2-oxo-1,2,3,4,5,6-hexahydrobenzo[b][1,4]diazocin-3-yl)amino)-6-methyl-4-(trifluoromethyl)nicotinonitrile], for the setting “read-out: Kinact/KI”, the kinact/KI was found to be 300000 M⁻¹ s⁻¹. Consider `Cc1cc(C(F)(F)F)c(C#N)c(N[C@H]2CCN(C[C@@H]3CN(C4CN(C(=O)/C=C/CN(C)C)C4)CCO3)c3c(F)cccc3N(C)C2=O)n1` [Example 59, 2-(((S)-6-(((S)-4-(1-((E)-4-(Dimethylamino)but-2-enoyl)azetidin-3-yl)morpholin-2-yl)methyl)-7-fluoro-1-methyl-2-oxo-1,2,3,4,5,6-hexahydrobenzo[b][1,4]diazocin-3-yl)amino)-6-methyl-4-(trifluoromethyl)nicotinonitrile], for which the kinact/KI (read-out: Kinact/KI) came out at 120000 M⁻¹ s⁻¹.

`Cc1cc(C(F)(F)F)c(C#N)c(N[C@H]2CCN(C[C@H]3CN(C4CN(C(=O)/C=C/CN(C)C)C4)CCO3)c3c(F)cccc3N(C)C2=O)n1` [Example 60, 2-(((S)-6-(((R)-4-(1-((E)-4-(Dimethylamino)but-2-enoyl)azetidin-3-yl)morpholin-2-yl)methyl)-7-fluoro-1-methyl-2-oxo-1,2,3,4,5,6-hexahydrobenzo[b][1,4]diazocin-3-yl)amino)-6-methyl-4-(trifluoromethyl)nicotinonitrile]: the kinact/KI (read-out: Kinact/KI) was 240000 M⁻¹ s⁻¹. For `C=CC(=O)N1CC2(CN(CCN3CC[C@H](Nc4nc(C)cc(C(F)(F)F)c4C#N)C(=O)N(C)c4cccc(F)c43)C[C@@H]3COCCN32)C1` [Example 61, 2-(((S)-6-(2-((R)-1-A cryloyltetrahydro-1′H-spiro[azetidine-3,6′-pyrazino[2,1-c][1,4]oxazin]-8′(7′H)-yl)ethyl)-7-fluoro-1-methyl-2-oxo-1,2,3,4,5,6-hexahydrobenzo[b][1,4]diazocin-3-yl)amino)-6-methyl-4-(trifluoromethyl)nicotinonitrile], for the setting “read-out: Kinact/KI”, the kinact/KI was 500000 M⁻¹ s⁻¹. As for `C=CC(=O)N1CC2(CN(CCN3CC[C@H](Nc4nc(C)cc(C(F)(F)F)c4C#N)C(=O)N(C)c4cccc(F)c43)C[C@H]3COCCN32)C1` [Example 62, 2-(((S)-6-(2-((S)-1-Acryloyltetrahydro-1′H-spiro[azetidine-3,6′-pyrazino[2,1-c][1,4]oxazin]-8′(7′H)-yl)ethyl)-7-fluoro-1-methyl-2-oxo-1,2,3,4,5,6-hexahydrobenzo[b][1,4]diazocin-3-yl)amino)-6-methyl-4-(trifluoromethyl)nicotinonitrile], the kinact/KI (read-out: Kinact/KI) is 1.8e+06 M⁻¹ s⁻¹. As for `C=CC(=O)N1CC2(CN(CCN3CC[C@H](Nc4nc(C)cc(C(F)(F)F)c4C#N)C(=O)N(C)c4cccc(F)c43)C[C@@H](C)N2)C1` [Example 63, 2-(((S)-6-(2-((R)-2-Acryloyl-6-methyl-2,5,8-triazaspiro[3.5]nonan-8-yl)ethyl)-7-fluoro-1-methyl-2-oxo-1,2,3,4,5,6-hexahydrobenzo[b][1,4]diazocin-3-yl)amino)-6-methyl-4-(trifluoromethyl)nicotinonitrile], for the setting “read-out: Kinact/KI”, the kinact/KI was 860000 M⁻¹ s⁻¹. As for `C=CC(=O)N1CC2(CN(CCN3CC[C@H](Nc4nc(C)cc(C(F)(F)F)c4C#N)C(=O)N(C)c4cccc(Cl)c43)C[C@@H](C)N2)C1` [Example 64, 2-(((S)-6-(2-((R)-2-Acryloyl-6-methyl-2,5,8-triazaspiro[3.5]nonan-8-yl)ethyl)-7-chloro-1-methyl-2-oxo-1,2,3,4,5,6-hexahydrobenzo[b][1,4]diazocin-3-yl)amino)-6-methyl-4-(trifluoromethyl)nicotinonitrile], the kinact/KI (read-out: Kinact/KI) is 1.8e+06 M⁻¹ s⁻¹. Turning to `C=CC(=O)N1CC(O[C@@H]2CN(CCN3CC[C@H](Nc4nc(C)cc(C(F)(F)F)c4C#N)C(=O)N(C)c4cccc(F)c43)C[C@H]2O)C1` [Example 65A, 2-(((S)-6-(2-((3S/R,4S/R)-3-((1-Acryloylazetidin-3-yl)oxy)-4-hydroxypyrrolidin-1-yl)ethyl)-7-fluoro-1-methyl-2-oxo-1,2,3,4,5,6-hexahydrobenzo[b][1,4]diazocin-3-yl)amino)-6-methyl-4-(trifluoromethyl)nicotinonitrile], the kinact/KI was 460000 M⁻¹ s⁻¹. For the molecule `C=CC(=O)N1CC(n2cnc(CN3CC[C@H](Nc4nc(C)cc(C(F)(F)F)c4C#N)C(=O)N(C)c4cccc(F)c43)n2)C1` [Example 66, (S)-2-((6-((1-(1-Acryloylazetidin-3-yl)-1H-1,2,4-triazol-3-yl)methyl)-7-fluoro-1-methyl-2-oxo-1,2,3,4,5,6-hexahydrobenzo[b][1,4]diazocin-3-yl)amino)-6-methyl-4-(trifluoromethyl)nicotinonitrile], the kinact/KI (read-out: Kinact/KI) stood at 2.4e+06 M⁻¹ s⁻¹. Regarding `C=CC(=O)N1CC(c2noc(CN3CC[C@H](Nc4nc(C)cc(C(F)(F)F)c4C#N)C(=O)N(C)c4cccc(F)c43)n2)C1` [Example 67, (S)-2-((6-((3-(1-Acryloylazetidin-3-yl)-1,2,4-oxadiazol-5-yl)methyl)-7-fluoro-1-methyl-2-oxo-1,2,3,4,5,6-hexahydrobenzo[b][1,4]diazocin-3-yl)amino)-6-methyl-4-(trifluoromethyl)nicotinonitrile], the kinact/KI (read-out: Kinact/KI) is 1.3e+06 M⁻¹ s⁻¹. In the case of `C=CC(=O)N1CC(c2nnc(CN3CC[C@H](Nc4nc(C)cc(C(F)(F)F)c4C#N)C(=O)N(C)c4cccc(F)c43)[nH]2)C1` [Example 68, (S)-2-((6-((5-(1-Acryloylazetidin-3-yl)-4H-1,2,4-triazol-3-yl)methyl)-7-fluoro-1-methyl-2-oxo-1,2,3,4,5,6-hexahydrobenzo[b][1,4]diazocin-3-yl)amino)-6-methyl-4-(trifluoromethyl)nicotinonitrile], under “read-out: Kinact/KI”, the kinact/KI came out at 130000 M⁻¹ s⁻¹.
